{"source": "paper PMC3287420", "about": "(Nature chemical biology, 2011)", "key": {"[1]": {"target": "T1, GST-LRRK2 [A2016T] (1326-2517) (Homo sapiens, UniProt Q5S007, A2016T)", "T1 sequence (Q5S007 1326-2527 A2016T)": "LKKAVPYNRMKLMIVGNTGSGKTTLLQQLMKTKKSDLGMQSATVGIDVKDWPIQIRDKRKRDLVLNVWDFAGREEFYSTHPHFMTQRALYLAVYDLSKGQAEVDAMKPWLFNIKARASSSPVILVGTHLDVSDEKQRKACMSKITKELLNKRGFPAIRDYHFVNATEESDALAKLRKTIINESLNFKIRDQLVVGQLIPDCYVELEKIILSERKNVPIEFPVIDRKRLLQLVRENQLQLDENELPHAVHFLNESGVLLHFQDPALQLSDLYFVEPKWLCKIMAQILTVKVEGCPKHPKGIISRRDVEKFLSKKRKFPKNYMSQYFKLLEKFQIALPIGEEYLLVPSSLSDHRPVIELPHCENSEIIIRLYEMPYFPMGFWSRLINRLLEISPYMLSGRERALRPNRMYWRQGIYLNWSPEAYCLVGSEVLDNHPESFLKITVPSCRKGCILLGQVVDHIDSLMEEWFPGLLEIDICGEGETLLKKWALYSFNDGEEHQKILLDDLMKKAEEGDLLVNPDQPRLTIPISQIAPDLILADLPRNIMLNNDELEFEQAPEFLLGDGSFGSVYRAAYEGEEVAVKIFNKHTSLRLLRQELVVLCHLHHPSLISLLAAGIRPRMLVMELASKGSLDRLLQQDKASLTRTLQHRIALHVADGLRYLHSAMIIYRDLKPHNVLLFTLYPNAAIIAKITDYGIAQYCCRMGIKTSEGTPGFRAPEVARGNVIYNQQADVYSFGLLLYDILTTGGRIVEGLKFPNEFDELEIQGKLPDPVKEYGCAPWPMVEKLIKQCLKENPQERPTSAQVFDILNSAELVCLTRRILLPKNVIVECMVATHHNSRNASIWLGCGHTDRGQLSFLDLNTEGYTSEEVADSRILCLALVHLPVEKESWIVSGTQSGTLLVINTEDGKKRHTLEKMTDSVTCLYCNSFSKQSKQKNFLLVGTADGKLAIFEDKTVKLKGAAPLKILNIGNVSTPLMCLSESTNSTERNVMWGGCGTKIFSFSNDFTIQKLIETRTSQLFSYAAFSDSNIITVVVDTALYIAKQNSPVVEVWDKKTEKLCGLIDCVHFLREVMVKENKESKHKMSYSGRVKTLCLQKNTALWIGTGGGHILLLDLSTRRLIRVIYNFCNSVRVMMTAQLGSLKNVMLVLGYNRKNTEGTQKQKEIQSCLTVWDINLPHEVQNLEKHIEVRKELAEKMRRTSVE", "conditions": "cited from earlier work"}, "DCLK1": {"tested_on": "DCLK1", "experiment": "KiNativ", "format": "binding", "conditions": "hPBMC and mouse brain tissue profiling"}, "LRRK2": {"tested_on": "LRRK2", "format": "binding", "conditions": "hPBMC and mouse brain tissue profiling"}, "MAPK7": {"target": "MAPK7 (Homo sapiens, UniProt Q13164)", "sequence (Q13164 whole entry)": "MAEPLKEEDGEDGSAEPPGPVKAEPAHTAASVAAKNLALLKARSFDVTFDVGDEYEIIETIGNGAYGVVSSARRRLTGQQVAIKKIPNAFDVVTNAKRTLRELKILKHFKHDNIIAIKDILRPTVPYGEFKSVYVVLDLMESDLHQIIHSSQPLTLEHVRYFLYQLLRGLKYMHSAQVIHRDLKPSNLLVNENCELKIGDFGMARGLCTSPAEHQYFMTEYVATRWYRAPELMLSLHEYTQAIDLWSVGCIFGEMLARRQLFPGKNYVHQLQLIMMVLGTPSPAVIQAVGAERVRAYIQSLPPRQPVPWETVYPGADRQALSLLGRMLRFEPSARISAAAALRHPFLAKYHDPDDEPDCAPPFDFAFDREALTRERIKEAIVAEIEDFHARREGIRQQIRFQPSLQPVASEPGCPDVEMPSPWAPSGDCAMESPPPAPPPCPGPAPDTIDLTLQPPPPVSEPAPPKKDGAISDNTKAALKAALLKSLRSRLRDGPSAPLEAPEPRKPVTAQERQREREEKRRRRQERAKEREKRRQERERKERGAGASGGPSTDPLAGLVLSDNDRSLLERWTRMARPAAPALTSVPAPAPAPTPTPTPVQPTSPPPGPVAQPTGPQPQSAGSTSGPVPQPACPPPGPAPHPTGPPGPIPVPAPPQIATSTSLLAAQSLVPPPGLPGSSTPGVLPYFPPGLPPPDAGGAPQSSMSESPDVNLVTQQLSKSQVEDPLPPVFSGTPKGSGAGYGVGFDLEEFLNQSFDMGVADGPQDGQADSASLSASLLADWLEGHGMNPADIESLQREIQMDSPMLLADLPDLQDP", "experiment": "KiNativ", "format": "binding", "conditions": "hPBMC and mouse brain tissue profiling"}, "CHEK2 [2]": {"target": "T2, CHEK2 (Homo sapiens, UniProt O96017)", "experiment": "KiNativ", "format": "binding"}, "AURKB": {"target": "AURKB (Homo sapiens, UniProt Q96GD4)", "sequence (Q96GD4 whole entry, species assumed)": "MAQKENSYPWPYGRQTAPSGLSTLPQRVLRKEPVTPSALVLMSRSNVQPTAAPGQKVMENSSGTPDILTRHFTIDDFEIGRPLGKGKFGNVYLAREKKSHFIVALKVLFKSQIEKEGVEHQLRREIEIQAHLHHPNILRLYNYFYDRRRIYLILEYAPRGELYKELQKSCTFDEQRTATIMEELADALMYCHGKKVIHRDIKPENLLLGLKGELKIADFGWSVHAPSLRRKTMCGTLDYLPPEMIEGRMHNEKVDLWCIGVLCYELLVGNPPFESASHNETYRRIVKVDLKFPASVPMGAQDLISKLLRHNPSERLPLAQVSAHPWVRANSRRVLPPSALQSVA", "experiment": "Invitrogen SelectScreen biochemical assay"}, "CHEK2 [3]": {"target": "T2, CHEK2", "experiment": "Invitrogen SelectScreen biochemical assay"}, "DCLK2": {"target": "T3, DCLK2 (Homo sapiens, UniProt Q8N568)", "T3 sequence (Q8N568 1-766)": "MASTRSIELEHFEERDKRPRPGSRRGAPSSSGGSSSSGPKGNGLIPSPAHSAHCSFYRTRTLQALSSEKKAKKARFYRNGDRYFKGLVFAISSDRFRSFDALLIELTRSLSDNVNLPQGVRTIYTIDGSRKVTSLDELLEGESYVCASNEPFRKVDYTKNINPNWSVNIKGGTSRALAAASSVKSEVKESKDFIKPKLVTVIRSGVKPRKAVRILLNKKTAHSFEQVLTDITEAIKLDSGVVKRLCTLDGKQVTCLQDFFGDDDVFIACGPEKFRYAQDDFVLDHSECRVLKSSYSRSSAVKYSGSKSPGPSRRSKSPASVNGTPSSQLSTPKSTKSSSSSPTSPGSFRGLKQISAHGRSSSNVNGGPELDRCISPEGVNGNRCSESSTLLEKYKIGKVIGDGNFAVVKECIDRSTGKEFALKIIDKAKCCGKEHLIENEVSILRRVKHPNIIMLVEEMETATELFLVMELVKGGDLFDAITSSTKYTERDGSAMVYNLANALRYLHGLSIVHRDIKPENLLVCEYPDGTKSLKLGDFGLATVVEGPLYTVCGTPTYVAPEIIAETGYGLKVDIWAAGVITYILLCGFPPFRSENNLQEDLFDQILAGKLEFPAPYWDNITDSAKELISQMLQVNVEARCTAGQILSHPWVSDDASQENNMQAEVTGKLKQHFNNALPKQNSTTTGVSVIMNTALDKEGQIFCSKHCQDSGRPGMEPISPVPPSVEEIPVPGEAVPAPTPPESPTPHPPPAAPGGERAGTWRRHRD", "experiment": "Invitrogen SelectScreen biochemical assay"}, "MKNK2": {"target": "MKNK2 (Homo sapiens, UniProt Q9HBH9)", "sequence (Q9HBH9 whole entry, species assumed)": "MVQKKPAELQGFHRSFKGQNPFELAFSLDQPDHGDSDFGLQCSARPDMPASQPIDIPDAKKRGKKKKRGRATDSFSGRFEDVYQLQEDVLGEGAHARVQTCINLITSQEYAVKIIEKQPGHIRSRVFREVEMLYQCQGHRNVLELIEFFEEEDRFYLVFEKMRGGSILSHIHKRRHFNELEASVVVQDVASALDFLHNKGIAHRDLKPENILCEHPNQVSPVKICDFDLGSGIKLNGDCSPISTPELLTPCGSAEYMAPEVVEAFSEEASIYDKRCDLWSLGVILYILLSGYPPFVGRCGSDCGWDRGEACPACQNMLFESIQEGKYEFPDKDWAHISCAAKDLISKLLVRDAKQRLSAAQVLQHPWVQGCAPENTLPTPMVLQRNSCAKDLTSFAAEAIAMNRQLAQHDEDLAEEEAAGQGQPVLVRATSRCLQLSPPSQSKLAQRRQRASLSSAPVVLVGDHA", "experiment": "Invitrogen SelectScreen biochemical assay"}, "MYLK": {"target": "MYLK (Homo sapiens, UniProt Q15746)", "sequence (Q15746 whole entry, species assumed)": "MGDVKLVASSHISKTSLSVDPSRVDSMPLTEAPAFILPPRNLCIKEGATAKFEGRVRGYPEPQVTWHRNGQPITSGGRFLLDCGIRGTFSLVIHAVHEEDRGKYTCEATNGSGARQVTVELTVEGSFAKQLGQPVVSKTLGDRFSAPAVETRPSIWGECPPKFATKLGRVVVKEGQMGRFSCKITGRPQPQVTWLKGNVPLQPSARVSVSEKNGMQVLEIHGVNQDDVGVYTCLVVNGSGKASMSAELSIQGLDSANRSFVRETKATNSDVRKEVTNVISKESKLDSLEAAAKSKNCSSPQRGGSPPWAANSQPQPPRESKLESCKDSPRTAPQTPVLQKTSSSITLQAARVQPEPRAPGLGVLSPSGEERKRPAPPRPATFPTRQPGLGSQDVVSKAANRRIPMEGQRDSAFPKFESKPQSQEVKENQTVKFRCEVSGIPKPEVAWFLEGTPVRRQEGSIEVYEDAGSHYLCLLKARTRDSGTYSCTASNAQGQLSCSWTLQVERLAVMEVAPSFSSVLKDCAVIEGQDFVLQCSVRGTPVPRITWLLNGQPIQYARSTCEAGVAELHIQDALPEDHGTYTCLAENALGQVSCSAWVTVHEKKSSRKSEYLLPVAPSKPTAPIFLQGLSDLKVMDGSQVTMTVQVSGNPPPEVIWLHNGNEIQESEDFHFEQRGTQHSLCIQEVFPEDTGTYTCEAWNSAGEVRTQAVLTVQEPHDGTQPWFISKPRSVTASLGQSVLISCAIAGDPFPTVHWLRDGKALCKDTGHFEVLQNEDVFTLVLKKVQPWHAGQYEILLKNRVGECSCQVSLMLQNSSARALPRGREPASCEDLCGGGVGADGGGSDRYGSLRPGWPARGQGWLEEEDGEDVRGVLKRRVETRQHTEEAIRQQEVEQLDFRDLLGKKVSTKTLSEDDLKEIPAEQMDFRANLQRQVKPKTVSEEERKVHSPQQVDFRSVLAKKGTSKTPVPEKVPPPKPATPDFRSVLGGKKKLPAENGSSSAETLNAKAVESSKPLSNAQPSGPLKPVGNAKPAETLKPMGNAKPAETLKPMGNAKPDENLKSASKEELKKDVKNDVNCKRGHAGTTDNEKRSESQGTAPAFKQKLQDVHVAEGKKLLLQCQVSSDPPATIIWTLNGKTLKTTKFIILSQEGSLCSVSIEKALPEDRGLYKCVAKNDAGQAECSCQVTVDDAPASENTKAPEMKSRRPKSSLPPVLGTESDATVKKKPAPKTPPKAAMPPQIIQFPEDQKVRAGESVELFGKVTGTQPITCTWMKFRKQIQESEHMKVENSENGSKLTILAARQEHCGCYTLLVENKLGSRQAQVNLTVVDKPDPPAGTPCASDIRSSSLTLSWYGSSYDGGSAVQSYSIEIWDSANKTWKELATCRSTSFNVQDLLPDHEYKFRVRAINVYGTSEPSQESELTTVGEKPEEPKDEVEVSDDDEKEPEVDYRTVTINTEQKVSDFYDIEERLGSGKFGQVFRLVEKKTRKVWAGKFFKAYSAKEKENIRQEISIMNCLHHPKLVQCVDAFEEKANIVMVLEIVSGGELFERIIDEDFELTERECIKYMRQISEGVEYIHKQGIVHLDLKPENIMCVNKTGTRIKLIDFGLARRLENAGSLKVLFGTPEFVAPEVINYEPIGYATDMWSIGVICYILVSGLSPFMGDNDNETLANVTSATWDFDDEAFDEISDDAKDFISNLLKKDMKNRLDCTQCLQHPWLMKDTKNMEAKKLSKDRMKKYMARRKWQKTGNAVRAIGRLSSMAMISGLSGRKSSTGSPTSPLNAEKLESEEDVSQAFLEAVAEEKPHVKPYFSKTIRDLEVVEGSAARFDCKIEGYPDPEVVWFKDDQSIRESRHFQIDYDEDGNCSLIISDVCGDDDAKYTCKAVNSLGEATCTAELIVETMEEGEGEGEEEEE", "experiment": "Invitrogen SelectScreen biochemical assay"}, "NUAK1": {"target": "T4, NUAK1 (Homo sapiens, UniProt O60285)", "T4 sequence (O60285 1-661)": "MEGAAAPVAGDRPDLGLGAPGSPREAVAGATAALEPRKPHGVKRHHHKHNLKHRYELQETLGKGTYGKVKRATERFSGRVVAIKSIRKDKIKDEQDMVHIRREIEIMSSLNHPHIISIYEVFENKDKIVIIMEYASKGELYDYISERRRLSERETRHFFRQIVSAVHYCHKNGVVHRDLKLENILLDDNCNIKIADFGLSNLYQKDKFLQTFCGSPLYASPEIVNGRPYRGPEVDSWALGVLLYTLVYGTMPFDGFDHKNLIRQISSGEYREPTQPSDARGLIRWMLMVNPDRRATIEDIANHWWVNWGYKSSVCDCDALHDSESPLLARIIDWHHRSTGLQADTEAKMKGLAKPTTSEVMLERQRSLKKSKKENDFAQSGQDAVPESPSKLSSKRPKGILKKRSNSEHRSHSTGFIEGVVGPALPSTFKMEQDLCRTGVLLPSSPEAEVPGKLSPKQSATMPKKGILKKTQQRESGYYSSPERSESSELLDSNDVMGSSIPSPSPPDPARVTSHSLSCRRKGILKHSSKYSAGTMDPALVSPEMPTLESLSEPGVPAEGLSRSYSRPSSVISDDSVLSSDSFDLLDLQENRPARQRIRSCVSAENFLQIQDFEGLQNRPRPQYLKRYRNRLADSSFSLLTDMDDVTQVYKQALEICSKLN", "experiment": "Invitrogen SelectScreen biochemical assay"}, "PLK1": {"target": "PLK1 (Homo sapiens, UniProt P53350)", "sequence (P53350 whole entry)": "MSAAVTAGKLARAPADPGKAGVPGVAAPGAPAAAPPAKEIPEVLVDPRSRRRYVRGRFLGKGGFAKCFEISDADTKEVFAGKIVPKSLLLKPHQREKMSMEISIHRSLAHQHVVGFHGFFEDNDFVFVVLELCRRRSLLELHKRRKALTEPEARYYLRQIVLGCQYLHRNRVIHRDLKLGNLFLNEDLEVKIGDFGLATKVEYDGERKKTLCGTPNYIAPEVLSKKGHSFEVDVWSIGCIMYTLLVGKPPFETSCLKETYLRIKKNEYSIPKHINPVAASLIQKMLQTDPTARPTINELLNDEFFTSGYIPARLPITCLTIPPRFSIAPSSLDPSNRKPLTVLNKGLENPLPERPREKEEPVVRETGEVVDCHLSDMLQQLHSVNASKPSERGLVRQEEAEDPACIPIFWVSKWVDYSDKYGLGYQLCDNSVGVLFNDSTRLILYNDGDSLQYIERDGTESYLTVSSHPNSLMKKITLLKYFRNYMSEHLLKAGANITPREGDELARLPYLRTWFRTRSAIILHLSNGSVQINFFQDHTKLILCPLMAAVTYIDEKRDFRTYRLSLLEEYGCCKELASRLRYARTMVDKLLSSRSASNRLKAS", "experiment": "Invitrogen SelectScreen biochemical assay"}, "[4]": {"tested_on": "kinase inactive LRRK2 {D2017A]", "format": "cell-based", "conditions": "1 µM, 2 h"}, "Pharmacokinetics in mice": {"experiment": "Pharmacokinetics in mice", "format": "in vivo", "conditions": "mouse, plasma, po, 10 mg/kg"}, "GFP-LRRK2": {"tested_on": "GFP-LRRK2", "experiment": "Fluorescence microscopy of LRRK2 localisation, HEK 293 stable cells", "format": "cell-based", "conditions": "1 µM, 2 h time course"}, "GFP-LRRK2 [A2016T] [5]": {"tested_on": "GFP-LRRK2 [A2016T]", "experiment": "Fluorescence microscopy of LRRK2 localisation, HEK 293 stable cells", "format": "cell-based", "conditions": "1 µM, 2 h time course"}, "GFP-LRRK2[A2016T+G2019S] [6]": {"tested_on": "GFP-LRRK2[A2016T+G2019S]", "experiment": "Fluorescence microscopy of LRRK2 localisation, HEK 293 stable cells", "format": "cell-based", "conditions": "1 µM, 2 h time course"}, "GFP-LRRK1": {"tested_on": "GFP-LRRK1", "experiment": "Fluorescence microscopy of LRRK1 localisation, HEK 293 stable cells", "format": "cell-based", "conditions": "1 µM, 2 hours"}, "GFP-LRRK2 [A2016T] [7]": {"tested_on": "GFP-LRRK2 [A2016T]"}, "GFP-LRRK2[A2016T+G2019S] [8]": {"tested_on": "GFP-LRRK2[A2016T+G2019S]"}, "endogenous LRRK2": {"tested_on": "endogenous LRRK2", "conditions": "mice, 100 mg/kg intraperitoneal, 1 h and 2 h time points"}}}
{"smiles": "Cc1cncc2cccc(S(=O)(=O)N3CCCNC[C@@H]3C)c12", "note": "[H-1152]", "values": [{"measurement": "fold less sensitive to inhibitor", "setting": "[1]", "result": 32, "unit": "fold"}]}
{"smiles": "COc1cc(C(=O)N2CCC(N3CCN(C)CC3)CC2)ccc1Nc1ncc2c(n1)N(C)c1ccccc1C(=O)N2C", "note": "[LRRK2-IN-1]", "values": [{"measurement": "inhibition in KiNativ profiling", "setting": "DCLK1", "result": "confirmed inhibition"}, {"measurement": "inhibition in KiNativ profiling", "setting": "LRRK2", "result": "confirmed inhibition"}, {"measurement": "inhibition in KiNativ profiling", "setting": "MAPK7", "result": "confirmed inhibition"}, {"measurement": "IC50", "setting": "CHEK2 [2]", "result": "> 1", "unit": "µM"}, {"measurement": "IC50", "setting": "AURKB", "result": "> 1", "unit": "µM"}, {"measurement": "IC50", "setting": "CHEK2 [3]", "result": "> 1", "unit": "µM"}, {"measurement": "IC50", "setting": "DCLK2", "result": 0.045, "unit": "µM"}, {"measurement": "IC50", "setting": "MKNK2", "result": "> 1", "unit": "µM"}, {"measurement": "IC50", "setting": "MYLK", "result": "> 1", "unit": "µM"}, {"measurement": "IC50", "setting": "NUAK1", "result": "> 1", "unit": "µM"}, {"measurement": "IC50", "setting": "PLK1", "result": "> 1", "unit": "µM"}, {"measurement": "dephosphorylation of Ser910/Ser935", "setting": "[4]", "result": "did not induce significant dephosphorylation"}, {"measurement": "AUC(0-inf)", "setting": "Pharmacokinetics in mice", "result": 14800, "unit": "ng·h/mL"}, {"measurement": "bioavailability", "setting": "Pharmacokinetics in mice", "result": 49.3, "unit": "%"}, {"measurement": "localization of LRRK2 (accumulation into aggregate structures)", "setting": "GFP-LRRK2", "result": "significant accumulation"}, {"measurement": "localization of LRRK2", "setting": "GFP-LRRK2 [A2016T] [5]", "result": "did not affect the localization"}, {"measurement": "localization of LRRK2", "setting": "GFP-LRRK2[A2016T+G2019S] [6]", "result": "did not affect the localization"}, {"measurement": "localization of LRRK1", "setting": "GFP-LRRK1", "result": "does not change"}, {"measurement": "dephosphorylation of Ser910/Ser935", "setting": "GFP-LRRK2 [A2016T] [7]", "result": "failed to induce dephosphorylation"}, {"measurement": "dephosphorylation of Ser910/Ser935", "setting": "GFP-LRRK2[A2016T+G2019S] [8]", "result": "failed to induce dephosphorylation"}, {"measurement": "Ser910/Ser935 dephosphorylation of LRRK2 in the kidney", "setting": "endogenous LRRK2", "result": "complete Ser910/Ser935 dephosphorylation"}, {"measurement": "dephosphorylation of LRRK2 Ser910 or Ser935 in brain", "setting": "endogenous LRRK2", "result": "no dephosphorylation"}]}
{"smiles": "CCN(CC)CCNC(=O)c1c(C)[nH]c(/C=C2\\C(=O)Nc3ccc(F)cc32)c1C", "note": "[sunitinib]", "values": [{"measurement": "fold less sensitive to inhibitor", "setting": "[1]", "result": 12, "unit": "fold"}]}
